Data taken from US8039430B2 (University of Wollongong, priority 2005, dated 2011).

Tests used:
[1] = system: #243 E. faecium van B ST17; test: Antibacterial assay (MIC), VRE strain #243, Enterococossel Broth, Example 1; assay type: cell-based, Enterococcus faecium; conditions: Example 1 compounds, VRE #243 E. faecium van B, 24 hrs, 37° C.; for MIC: Enterococcus faecium, read-out: 243 (minimum inhibitory concentration)
Protocol: (§1) Antibacterial Assay Method for Staphylococcus aureus (ATCC 6538P) and Enterococcus faecium
(§2) VRE strains: #243 E. faecium van B ST17 #449 E. faecium van B ST17
(§3) Compounds are accurately weighed out (between approx. 1-2 mg) and dissolved in either 10% methanol/water (v/v) or 100% DMSO to a final stock concentration of 5 mg/ml.
(§4) Compounds are then diluted 1/10 in H2O to a test conc of 500 ug/ml ready for immediate use, or storage at −20° C.
(§5) Grow up an o/n starter culture of Staphylococcus aureus and each VRE strain by diluting previous culture (stored at 4° C.) 1/1000 into −50 mls Luria Broth (LB) for S. aureus or Enterococossel Broth (EB) for the VRE strains.
(§6) Incubate o/n at 37° C.+shaking. • A glycerol stock (0.6 mls bacterial culture, 0.3 mls glycerol) of each strain is kept at −80° C. if needed. Assay Set Up:
(§7) In a 96well round bottom plate add 50 ul LB/well for the S. aureus plate and add 50 ul EB/well for the VRE plates.
(§8) Add 50 ul of compound dilution (500 ug/ml test conc) to each of three top row wells (ie: tested in triplicate) and dilute 1 in 2 from the top row to the bottom row.
(§9) After the compound dilution, add to each well 50 ul of a 1/1000 dilution of the appropriate overnight bacterial culture, either S. aureus or the different VRE strains.
(§10) Plates are incubated at 37° C. on a slowly rotating plate incubator. • test concentrations are (in ug/ml) 125, 62.5, 31.25, 15.6, 7.8, 3.9, 1.9, 0.98 • final DMSO concentration in the first row of wells of the assay is 2.5% • Vancomycin is included in the assay (in triplicate) at a starting test concentration of 5 ug/ml for S. aureus and 125 ug/ml for the VRE strains Reading Results of Assay:
(§11) After incubation for 24 hrs the plates are removed and read. Inhibition of bacterial growth is indicated by lack of bacterial pellet or a clear well. In the VRE plates bacterial growth is indicated by black coloured media (EB) as well as a bacterial pellet.
(§12) Untreated control wells are included in the assay to check they all contain bacterial pellets. Uninoculated untreated control wells are included to check they all contain clear medium.
(§13) The plates are analysed for MIC and the results tabulated.

[2] = system: Staphylococcus aureus (ATCC 6538P); test: Antibacterial assay (MIC), Staphylococcus aureus ATCC 6538P, Luria Broth, Example 1; assay type: cell-based; conditions: Example 1 compounds, S. aureus ATCC 6538P, 24 hrs, 37° C., range if at least two of three values fell within it; for MIC: Staphylococcus aureus, ATCC6538P, read-out: Sa (minimum inhibitory concentration)
Protocol: as §1
Staphylococcus aureus (ATCC 6538P)
as §3, §4, §5, §6, §7, §8, §9, §10, §11, §12, §13

[3] = system: #820 E. faecium van A ST17; test: Antibacterial assay (MIC), VRE strain #820, Enterococossel Broth, Example 1; assay type: cell-based, Enterococcus faecium; conditions: Example 1 compounds, VRE #820 E. faecium van A, 24 hrs, 37° C.; for MIC: Enterococcus faecium, read-out: 820 (minimum inhibitory concentration)
Protocol: as §1
(§14) #820 E. faecium van A ST17 #987 E. faecium van B ST39
as §3, §4, §5, §6, §7, §8, §9, §10, §11, §12, §13

[4] = system: #449 E. faecium van B ST17; test: Antibacterial assay (MIC), VRE strain #449, Enterococossel Broth, Example 1; assay type: cell-based, Enterococcus faecium; conditions: Example 1 compounds, VRE #449 E. faecium van B, 24 hrs, 37° C.; for MIC: Enterococcus faecium, read-out: 449 (minimum inhibitory concentration)
Protocol: as §1, §2, §3, §4, §5, §6, §7, §8, §9, §10, §11, §12, §13

[5] = system: #987 E. faecium van B ST39; test: Antibacterial assay (MIC), VRE strain #987, Enterococossel Broth, Example 1; assay type: cell-based, Enterococcus faecium; conditions: Example 1 compounds, VRE #987 E. faecium van B, 24 hrs, 37° C.; for MIC: Enterococcus faecium, read-out: 987 (minimum inhibitory concentration)
Protocol: as §1, §14, §3, §4, §5, §6, §7, §8, §9, §10, §11, §12, §13

MIC [1] [mg/L]	MIC [2] [mg/L]	MIC [3] [mg/L]	MIC [4] [mg/L]	MIC [5] [mg/L]	SMILES	243 (minimum inhibitory concentration) [1]	Sa (minimum inhibitory concentration) [2]	820 (minimum inhibitory concentration) [3]	449 (minimum inhibitory concentration) [4]	987 (minimum inhibitory concentration) [5]
> 62.6	0.99 to 15.6	15.7 to 62.5	15.7 to 62.5	> 62.6	Cl.Cl.NCCCC[C@@H](NC(=O)CCCOc1ccc2ccccc2c1-c1c(OCCCC(=O)N[C@H](CCCCN)C(=O)OCc2ccccc2)ccc2ccccc12)C(=O)OCc1ccccc1 (atropisomer, axis not shown) [Compound 34]	–	–	–	–	–
15.7 to 62.5	0.99 to 15.6	15.7 to 62.5	15.7 to 62.5	> 62.6	CC(C)CCOc1ccc2ccccc2c1-c1c(OCC(=O)N[C@H](CCCCN)C(=O)N[C@H](CCCNC(=N)N)C(=O)N[C@@H](CC(C)C)C(=O)NCc2ccccc2)ccc2ccccc12.Cl.Cl (atropisomer, axis not shown) [Compound 14]	–	–	–	–	–
15.7 to 62.5	0.99 to 15.6	15.7 to 62.5	15.7 to 62.5	15.7 to 62.5	CC(C)CCOc1ccc2ccccc2c1-c1c(OCC(=O)N[C@H](CCCCN)C(=O)N[C@H](CCCNC(=N)N)C(=O)N[C@@H](CC(C)C)C(=O)OCc2cccc(Cl)c2)ccc2ccccc12.Cl.Cl (atropisomer, axis not shown) [Compound 6]	–	–	–	–	–
> 62.6	0.99 to 15.6	> 62.6	> 62.6	> 62.6	C=CCOc1ccc2ccccc2c1-c1c(OCC(=O)N[C@H](CCCNC(=N)N)C(=O)Nc2cccc(C(=O)NOCc3ccccc3)c2)ccc2ccccc12.Cl (atropisomer, axis not shown) [Compound 46]	–	–	–	–	–
> 62.6	15.7 to 62.5	> 62.6	> 62.6	> 62.6	CC(C)CCOc1ccc2ccccc2c1-c1c(OCC(=O)N[C@H](CCCCN)C(=O)N[C@H](CCCNC(=N)N)C(=O)N[C@@H](CC(C)C)C(=O)OCc2c(Cl)cccc2Cl)ccc2ccccc12.Cl.Cl (atropisomer, axis not shown) [Compound 8]	–	–	–	–	–
15.7 to 62.5	0.99 to 15.6	15.7 to 62.5	15.7 to 62.5	15.7 to 62.5	C=CC[C@H](NC(=O)[C@@H](CCCNC(=N)N)NC(=O)[C@@H](CCCCN)NC(=O)COc1ccc2ccccc2c1-c1c(OCC2CCCCC2)ccc2ccccc12)C(=O)OCc1ccccc1.Cl.Cl (atropisomer, axis not shown) [Compound 23]	–	–	–	–	–

Further lines, the compound ahead of its results:

SMILES	MIC [1] [mg/L]	MIC [2] [mg/L]	MIC [3] [mg/L]	MIC [4] [mg/L]	MIC [5] [mg/L]	243 (minimum inhibitory concentration) [1]	Sa (minimum inhibitory concentration) [2]	820 (minimum inhibitory concentration) [3]	449 (minimum inhibitory concentration) [4]	987 (minimum inhibitory concentration) [5]
CC(C)C[C@H](NC(=O)[C@@H](CCCNC(=N)N)NC(=O)[C@@H](CCCCN)NC(=O)COc1ccc2ccccc2c1-c1c(OCCc2ccccc2)ccc2ccccc12)C(=O)OCc1ccccc1.Cl.Cl (atropisomer, axis not shown) [Compound 28]	15.7 to 62.5	0.99 to 15.6	15.7 to 62.5	15.7 to 62.5	15.7 to 62.5	–	–	–	–	–
CC(C)CCOc1ccc2ccccc2c1-c1c(OCC(=O)N[C@H](CCCCN)C(=O)N[C@H](CCCNC(=N)N)C(=O)N[C@@H](CC(C)C)C(=O)OCCc2ccccc2)ccc2ccccc12.Cl.Cl (atropisomer, axis not shown) [Compound 13]	15.7 to 62.5	0.99 to 15.6	15.7 to 62.5	15.7 to 62.5	15.7 to 62.5	–	–	–	–	–
CCC(C)[C@H](NC(=O)[C@@H](CCCNC(=N)N)NC(=O)[C@@H](CCCCN)NC(=O)COc1ccc2ccccc2c1-c1c(OCCC(C)C)ccc2ccccc12)C(=O)OCc1ccccc1.Cl.Cl (some centres unmarked) [Compound 3]	15.7 to 62.5	0.99 to 15.6	15.7 to 62.5	15.7 to 62.5	15.7 to 62.5	–	–	–	–	–
Cl.Cl.N=C(N)NCCCC[C@@H](NC(=O)CCCOc1ccc2ccccc2c1-c1c(OCCCC(=O)N[C@H](CCCCNC(=N)N)C(=O)Oc2cccc3ccccc23)ccc2ccccc12)C(=O)Oc1cccc2ccccc12 (atropisomer, axis not shown) [Compound 40]	> 62.6	0.99 to 15.6	15.7 to 62.5	> 62.6	> 62.6	–	–	–	–	–
C=CC[C@H](NC(=O)[C@@H](CCCNC(=N)N)NC(=O)[C@@H](CCCCN)NC(=O)COc1ccc2ccccc2c1-c1c(OCCCCC)ccc2ccccc12)C(=O)OCc1ccccc1.Cl.Cl (atropisomer, axis not shown) [Compound 26]	15.7 to 62.5	0.99 to 15.6	15.7 to 62.5	15.7 to 62.5	15.7 to 62.5	–	–	–	–	–
C=CCOc1ccc2ccccc2c1-c1c(OCC(=O)N[C@H](CCCNC(=N)N)C(=O)Nc2cccc(C(=O)OC)c2)ccc2ccccc12.Cl (atropisomer, axis not shown) [Compound 44]	> 62.6	0.99 to 15.6	15.7 to 62.5	> 62.6	> 62.6	–	–	–	–	–
CC(C)CCOc1ccc2ccccc2c1-c1c(OCC(=O)N[C@H](CCCCN)C(=O)N[C@H](CCCNC(=N)N)C(=O)N[C@@H](CC(C)C)C(=O)OCc2ccc([N+](=O)[O-])cc2)ccc2ccccc12.Cl.Cl (atropisomer, axis not shown) [Compound 5]	15.7 to 62.5	0.99 to 15.6	15.7 to 62.5	15.7 to 62.5	15.7 to 62.5	–	–	–	–	–
CC(C)CCOc1ccc2ccccc2c1-c1c(OCC(=O)N[C@H](CCCCN)C(=O)N[C@H](CCCNC(=N)N)C(=O)N[C@@H](CC(C)C)c2ncc(Cc3ccccc3)o2)ccc2ccccc12.Cl.Cl (atropisomer, axis not shown) [Compound 18]	15.7 to 62.5	0.99 to 15.6	15.7 to 62.5	15.7 to 62.5	15.7 to 62.5	–	–	–	–	–
CC(C)CCOc1ccc2ccccc2c1-c1c(OCC(=O)N[C@H](CCCCN)C(=O)N[C@H](CCCNC(=N)N)C(=O)N[C@H](C(=O)OCc2ccccc2)C(C)C)ccc2ccccc12.Cl.Cl (atropisomer, axis not shown) [Compound 2]	15.7 to 62.5	0.99 to 15.6	15.7 to 62.5	15.7 to 62.5	15.7 to 62.5	–	–	–	–	–
COC(=O)[C@H]1CC=CCOc2ccc(cc2)C[C@H](NC(C)=O)C(=O)N[C@@H](CCCN=C(N)NS(=O)(=O)c2c(C)c(C)c3c(c2C)CCC(C)(C)O3)C(=O)N1 [Compound 47]	–	–	–	–	–	+ (MIC of the compound in the range of greater than or equal to 62.6 (μg/ml))	+++ (MIC of the compound in the range of greater than or equal to 0.99 (μg/ml) and less than or equal to 15.6 (μg/ml))	+ (MIC of the compound in the range of greater than or equal to 62.6 (μg/ml))	+ (MIC of the compound in the range of greater than or equal to 62.6 (μg/ml))	+ (MIC of the compound in the range of greater than or equal to 62.6 (μg/ml))
